Assay results from patent US20220339260A1, “METHOD FOR PRODUCING INSULIN-PRODUCING CELL USING DIHYDROINDOLIZINONE DERIVATIVES” (TOKYO INSTITUTE OF TECHNOLOGY, priority 2019, published 2022).

What was measured:
SK7 mouse ES cells = experiment: Screening for β cell differentiation enhancer using SK7 mouse ES cells (Pdx1-GFP); assay type: cell-based; conditions: LY411575 alone
Description: The SK7 mouse ES cells were differentiated into β cells basically according to the previous report (Nakashima et al., 2015). Briefly, the cells were seeded at 5,000 cells per well in CellBIND 384-well (CORNING, 3770) cell culture plate or at 20,000 cells per well in a 96-well plate (Sigma) coated with 0.2% gelatin. Then, the cells were cultured in medium 1 from days 1 to 5. Medium 1 consisted of DMEM (high glucose) (Life Technologies, 11965092) supplemented with 0.1 mM NEAA (Gibco, 11140-50), 2 mM L-glutamine (Nacalai, 16948-04), 100 U/mL penicillin-streptomycin (Nacalai, 26252-94), 0.01 mM β-mercaptoethanol (Sigma), 1% insulin-transferrin-selenium supplement (ITS: Life Technologies, 41400045), 0.25% Albumax (Thermo Fisher, 11020021), and 10 ng/mL recombinant human activin-A (R&D Systems, 338-AC). Subsequently, the cells were cultured for 1 day in medium 2 which consisted of medium 1 supplemented with 10 μM retinoic acid (Stemgent, 04-0021). On day 6, the medium was replaced with medium 3, and the culture was continued until day 12 in order to induce differentiation into β cells. Medium 3 consisted of DMEM (low glucose) (Life Technologies, 11885084) supplemented with 0.1 mM NEAA, 2 mM L-glutamine, 100 U/mL penicillin-streptomycin, 0.1 mM β-mercaptoethanol, 1% ITS, 0.25% Albumax, and 3 mM nicotinamide (Sigma-Aldrich, N0636-500G). A test compound was added on day 8, and the cells were fixed in 4% paraformaldehyde for analysis using a high-content imager.
A chemical library consisting of about 55,000 compounds was screened for a substance that induced β cell differentiation. […] Fluorescence images were quantified using Operetta high-content imaging system and Harmony image analysis software (PerkinElmer, Germany). The nuclei were identified by DAPI staining, and the positivity of antibody staining was determined from the fluorescence intensity of a cytoplasmic region surrounding the nucleus. The number of cells positive to both insulin and GFP was counted and normalized with the total number of DAPI-positive cells or a positive area. A median of quadruple data was calculated, and screening hits were defined as states in which the number of insulin- and GFP-positive cells was increased as compared with a DMSO control. […] The activity of the selected candidate compounds was further analyzed with Toe human iPS cell assay system in order to select a hit compound having effectiveness for both differentiation into mouse β cells and differentiation into human β cells. A compound was added as described above, and its effectiveness was evaluated from a mRNA expression level by q-PCR in triplet experiments. […]

Toe human iPS cells = experiment: Differentiation of Toe human iPS cells into iPS-β cells, monolayer culture, protocol #1; assay type: cell-based; conditions: treatment from later stage of stage 3 to initial stage of stage 5
Description: The Toe human iPS cells were seeded in CellBIND 6-well (CORNING, CLS3335) cell culture plate coated with synthemax II, and differentiated into primitive gut tube cells by the previously described method (Shahjalal et al., 2014). The cells were dissociated with TrypLE Select (Thermo Fisher, 12563011) and cryopreserved in BanBanker (Nippon genetics) at a density of 1.0 to 2.0×10^7 cells/mL until use. One day before compound addition, the cells were thawed in a medium for stage 3 (DMEM (high glucose), 0.25 μM SANT1 (Wako, 197-16351), 0.1 μM LDN193189 (Stemgent, 04-0074), 10 μM SB431542, 2 μM retinoic acid, 1% B27-free serum supplement (Life Technologies, 17504044), and seeded at 150,000 cells per well in CellBIND 96-well (Corning, 3340) cell culture plated coated with synthemax II. The cells were cultured for 1 day in a medium for stage 3 containing a test compound or a negative control (0.01% DMSO). The cells were further cultured for 2 days and 1 day in media for stages 4 and 5, respectively, containing the test compound or the negative control. On the next day, the cells were fixed in 4% paraformaldehyde for analysis using a high-content imager.

RPChiPS771 iPSC = experiment: Differentiation of RPChiPS771 iPS cells, sphere culture, protocol #1; assay type: cell-based, human; conditions: 0.25 μM, methionine depletion 5 hours
Description: (§1) The RPChipS771 cells were maintained as described above, and differentiated according to protocol #1. Briefly, on day 0, the cells were dissociated with TrypLE Select, transferred at a concentration of 1×10^6 cells/mL in Essential 8 medium to a low-attachment 6-well plate (Greiner, 657185), and cultured on a rotary shaker (95 rpm). On day 1, the medium was replaced with methionine-depleted medium KA01 (Ajinomoto), and the cells were cultured for 5 hours. The medium was replaced with differentiation medium 1 (DMEM (high glucose), L-Gln, NEAA, 0.01 mM β-mercaptoethanol, 100 ng/mL activin A, B27 supplement, 3 μM CHIR99021), and the cells were cultured for 1 day (stage 1-1). Then, the medium was replaced with medium 1 free from CHIR99021, and the cells were cultured for 2 days (stage 1-2). […]

Ff-I01s01 = experiment: Differentiation of Ff-I01s01 iPS cells, sphere culture, protocol #2; assay type: cell-based, human
Description: The FfI-01s01 cells were maintained as described above and then differentiated according to protocol #2. Briefly, the cells were dissociated with TrypLE Select, transferred at a concentration of 1×10^6 cells/mL in AK03N medium (Ajinomoto Co., Inc.) to a low-attachment 6-well plate, and cultured for 24 hours on a rotary shaker (95 rpm). Then, the medium was replaced with AK03N-based methionine-depleted medium KA01, and the cells were cultured for 5 hours. Then, the medium was replaced with M1-1 AKM medium, and the cells were cultured for 24 hours (stage 1-1). The cells were cultured for 2 days in M1-2 AKM medium (stage 1-2), subsequently cultured for 2 days in M2 AKM medium (stage 2-1), cultured for 2 days in S2 medium (stage 2-2), cultured for 2 days in S3 medium (stage 3), cultured for 5 days in S4 medium (stage 4), cultured for 4 days in S5-1 medium (stage 5-1), and cultured for 3 days in S5-2 medium (stage 5).
In the case of evaluating the effectiveness of a compound for a differentiation rate and a cell function, a test compound and a negative control ([…]), and immunostaining was carried out on days 14 (at the completion of stage 4) and 21 (at the completion of stage 5) in order to confirm an effect on positivity to insulin, NKX6.1, and PDX1. GSIS assay was carried out on day 21.
Immunocytochemistry was carried out according to a general protocol using the following antibodies: rabbit anti-MAFA (Abcam; ab26405; 1/100×), goat anti-PDX1 (R&D systems; AF2419; 1/100×), mouse anti-NKX6.1 (Developmental Studies Hybridoma Bank, University of Iowa; F64A6B4; 1/100×), guinea pig anti-INSULIN (Dako; IR002; 1/10×), mouse anti-INSULIN (Sigma-Aldrich; 12018; 1/1000×), rabbit anti-C-peptide (Cell Signaling; 4593; 1/100×), rabbit anti-GFP (MBL International Corp; 598; 1/1000×), and mouse anti-GLUCAGON (Sigma-Aldrich; G2654; 1/1000×). […]

[1] = tested on: iPS-β cells (RpChiPSC771); experiment: GSIS function assay of iPS-β cells from sphere culture of RPChiPSC771, protocol #1; assay type: cell-based, human; conditions: 1 μM, treatment between stages 3 and 4
Description: as §1
Batch-mode GSIS assay was carried out as described below. […] The C-peptide concentration of a sample was measured using alphaLISA C-peptide kit (PerkinElmer, AL299F) or C-peptide ELISA and corrected with the DNA content of the cells used in the GSIS assay.

iPS-β cells = experiment: Response of iPS-β cells to insulin secretagogues (c-peptide secretion); assay type: cell-based, human; conditions: glibenclamide, exendin 4, and KCl
Description: Batch-mode GSIS assay was carried out as described below. An aliquot of the obtained human iPS-β cells was washed with LG-KRBH as described above. Then, the cells were incubated for 30 minutes or 1 hour in LG-HKRB buffer and subsequently incubated for the same time thereas in HG-HKRB buffer. In some experiments, after washing of the cells, the cells were dispensed into some aliquots and incubated for 1 hour in HG-HKRB buffer containing 0.01% DMSO or several types of insulin secretagogues. The C-peptide concentration of a sample was measured using alphaLISA C-peptide kit (PerkinElmer, AL299F) or C-peptide ELISA and corrected with the DNA content of the cells used in the GSIS assay.

Row | Structure (SMILES) | number of Pdx1-GFP+Ins+ double-positive cells (SK7 mouse ES cells) | differentiation into iPS-β cells (INS+ cells) (Toe human iPS cells) | differentiation into INSULIN+PDX1+ double-positive cells (RPChiPS771 iPSC) | differentiation depending on time window of addition (Ff-I01s01; added in a time window including stage 3) | differentiation into INSULIN+NKX6.1+, NKX6.1+PDX1+ double-positive and INSULIN+NKX6.1+PDX1+ triple-positive cells (Ff-I01s01; protocol #2, end of stage 4 and later) | production of NKX6.1+ and INSULIN+NKX6.1+ double-positive cells (Ff-I01s01; treatment particularly in stages 3 to 5) | glucose stimulated insulin secretion (GSIS) activity of obtained iPS-β cells [1] | insulin secretion dynamics in step-wise time-course measurement [1] | c-peptide secretion by stimulation with insulin secretagogues (iPS-β cells)
1 | C[C@H](NC(=O)[C@@H](O)c1cc(F)cc(F)c1)C(=O)N[C@@H]1C(=O)N(C)c2ccccc2-c2ccccc21 [LY411575, reference compound] | increase |  |  |  |  |  |  |  | 
2 | O=C1CCC(C(=O)Nc2ncc(-c3ccc(OC(F)(F)F)cc3)s2)n2cccc21 (stereo not drawn) [Synthesis Example 9, 8-Oxo-N-[5-[4-(trifluoromethoxy)phenyl]thiazol-2-yl]-6,7-dihydro-5H-indolizine-5-carboxamide] |  | stronger efficacy than that of the original compound K-1 | enhanced differentiation | enhance differentiation most effectively | enhanced differentiation | promoted the production | enhanced | rapid first-phase insulin secretion and long-lasting second-phase insulin secretion | enhanced c-peptide secretion
